Experimental data from US20240132485A1, “HETEROCYCLIC CULLIN RING UBIQUITIN LIGASE COMPOUNDS AND USES THEREOF” (CEMM - FORSCHUNGSZENTRUM FÜR MOLEKULARE MEDIZIN GMBH, priority 2020, published 2024).

What was measured:
KBM7 cells (wild-type) = assay: KBM7 CTG EC50 assay (UBE2M wild-type); format: cell-based, human; conditions: for EC50: Homo sapiens, KBM-7, 72 h incubation, CellTiter-Glo, read-out: KBM7 CTG EC50 (UBE2M wild-type) Activity Class; for Ratio UBE2M WT to KO: ratio of anti-proliferative activity in KBM7 wild-type versus UBE2M knock-out cells (fold)
Source text: (§1) This is a cell viability assay to measure the desired therapeutic effect, i.e. killing of cancer cells. The UBE2M mutant cell line has impaired activity of the Cullin-RING ligase system due to a hypomorphic mutation in UBE2M, which is required for activation of these E3 ligases. By comparison with WT cells, it is possible to estimate the contribution of Cyclin K degradation (which is reduced in UBE2M mut cells) compared to kinase inhibition of CDK12 (which is unaffected in UBE2M mut cells). Since the UBE2M mutation only reduces CRL function without fully abrogating it, this assay may slightly underestimate the effect of degradation because, at high compound concentrations, degradation may still be observed.
(§2) KBM7 cells (wild-type or harboring α hypomorphic UBE2M mutation (Mayor-Ruiz et al., 2019)) were seeded in a white opaque 384-well plate at a density of 1000 cells per well in duplicate, in full medium (IMDM+10% FBS+1% penicillin-streptomycin). Cells were treated with compounds in a 10-point titration with a dilution factor of 1:4 (range: 0 to 20 μM). After 72 h of incubation, the cell viability was determined using the CellTiter-Glo® 2.0 reactant (Promega), pre-diluted 1:4 in mQ water. The luminescence signal was measured using the multimode plate reader EnVision 2105 (Perkin Elmer).

[1] = test system: KBM7 cells harboring a hypomorphic UBE2M mutation; assay: KBM7 CTG EC50 assay (UBE2M knock-out); format: cell-based; conditions: Homo sapiens, KBM-7; 72 h incubation, CellTiter-Glo; read-out: KBM7 CTG EC50 (UBE2M knock-out) Activity Class
Source text: as §1, §2

[2] = target: T1, DDB1-CDK12/Cyclin K ternary complex (Homo sapiens, UniProt Q16531+Q9NYV4); assay: NanoBRET fold-change assay (HaloTag_CDK12 / NanoLuc_DDB1 in HEK293T); format: cell-based; conditions: 10 μM compound, 10 minutes
T1 construct: expressed in transfected cells; host or cells: HEK293T wildtype cells, transient PEI transfection
Procedure: This assay measures the interaction/recruitment of CDK12/Cyclin K to DDB1, mechanistically validating the molecular glue pharmacology.
HEK293T wildtype cells are seeded 800 k cells/well (DMEM+10% FBS+1% PS) in a 6-well plate and allowed to attach for ˜7 hours followed by a transient transfection of 1.5 μg HaloTag_CDK12 Plasmid [Table 1] and 0.15 μg NanoLuc_DDB1 plasmid [Table 1] per well using PEI. Cells are incubated at 37° C., 5% CO2, harvested after 24 hours and resuspended in assay media (Opti-MEM Reduced serum media, no phenol red, 4% FBS, 1% PS). Cells are adjusted to 2.3×10^5 cells/ml and treated with HaloTag 618 Ligand at 100 nM or DMSO. 8000 cells are seeded per well in triplicates per compound in a white-walled 384-well plate, one negative control treated with DMSO instead of HaloTag 618 Ligand is seeded in triplicates and the 384-well plate is incubated at 37° C., 5% CO2 overnight. Compound stock solutions are prepared in Opti-MEM−/− (Opti-MEM I Reduced serum media, no phenol red) at 8× and used to treat the cells at a final concentration of 1× at 10 μM. Cells and compounds are incubated for 10 minutes at room temperature followed by addition of NanoBRET Nano-Glo substrate following manufacturer's protocols. The plate is shaken for 30 sec followed by immediate measurement of donor emission (NanoBRET Blue at 460 nm) and acceptor emission (BRET Deep Red at 647 nm) for 0.5 s.

CCNK = assay: NanoLuc-CCNK degradation assay (HEK293T_Nluc_CCNK-tagged cells); format: cell-based; conditions: 4 h incubation, HEK293T_Nluc_CCNK-tagged cells; for DC50: read-out: NanoLuc-CCNK degradation DC50 Activity Class
Procedure: The assay helps to elucidate the mechanistic explanation of the cell killing effect of the compounds of the present invention. Cyclin K is fused to a nanoluciferase, light emission is measured as a proxy of Cyclin K abundance. Potency of Cyclin K degradation and cytotoxicity of KBM7 correlate extremely well, further supporting Cyclin K degradation being the main driver of the cell killing, as opposed to inhibition of CDK12 catalytic activity.
HEK293T_Nluc_CCNK-tagged cells were engineered by integrating a nanoluciferase tag at the N-terminus of the endogenous locus of CCNK using CRISPR-Cas9 technology. Briefly, 5.5 million HEK293T cells were co-transfected by PEI with a 1:1 ratio of cutting vector (sgRNA: […]) and repair template (4 μg total plasmid) as previously described (Brand and Winter, 2019). The repair sequence comprises a cassette of puromycinR-P2A-HA-Nluc-(G4S)3 (P2A: self-cleaving peptide 2A, HA: HA-tag, (G4S)3: flexible linker), surrounded by 20-nucleotide microhomologies matching the genomic locus. After 3 days of incubation, the recombinant population was selected by puromycin treatment (2 μg/ml, 5-day treatment). A monoclonal population was obtained by limiting dilution and cassette integration validated by Sanger sequencing.
HEK293T_Nluc_CCNK-tagged cells were seeded in a white opaque 384-well plate at a density of 8000 cells per well in duplicate, in full medium (Opti-MEM I+4% FBS+1% PS). Cells were treated with compounds in a 10-point titration (range: 0 to 10 μM, 1:4 dilution). After 4 h of incubation, Nano-Glo substrate (Promega), pre-diluted in serum-free medium (Opti-MEM I), was added to the cells (1:500 final dilution). The luminescence signal was directly measured using the multimode plate reader EnVision 2105 (Perkin Elmer).

T1 sequence (Q9NYV4 whole entry): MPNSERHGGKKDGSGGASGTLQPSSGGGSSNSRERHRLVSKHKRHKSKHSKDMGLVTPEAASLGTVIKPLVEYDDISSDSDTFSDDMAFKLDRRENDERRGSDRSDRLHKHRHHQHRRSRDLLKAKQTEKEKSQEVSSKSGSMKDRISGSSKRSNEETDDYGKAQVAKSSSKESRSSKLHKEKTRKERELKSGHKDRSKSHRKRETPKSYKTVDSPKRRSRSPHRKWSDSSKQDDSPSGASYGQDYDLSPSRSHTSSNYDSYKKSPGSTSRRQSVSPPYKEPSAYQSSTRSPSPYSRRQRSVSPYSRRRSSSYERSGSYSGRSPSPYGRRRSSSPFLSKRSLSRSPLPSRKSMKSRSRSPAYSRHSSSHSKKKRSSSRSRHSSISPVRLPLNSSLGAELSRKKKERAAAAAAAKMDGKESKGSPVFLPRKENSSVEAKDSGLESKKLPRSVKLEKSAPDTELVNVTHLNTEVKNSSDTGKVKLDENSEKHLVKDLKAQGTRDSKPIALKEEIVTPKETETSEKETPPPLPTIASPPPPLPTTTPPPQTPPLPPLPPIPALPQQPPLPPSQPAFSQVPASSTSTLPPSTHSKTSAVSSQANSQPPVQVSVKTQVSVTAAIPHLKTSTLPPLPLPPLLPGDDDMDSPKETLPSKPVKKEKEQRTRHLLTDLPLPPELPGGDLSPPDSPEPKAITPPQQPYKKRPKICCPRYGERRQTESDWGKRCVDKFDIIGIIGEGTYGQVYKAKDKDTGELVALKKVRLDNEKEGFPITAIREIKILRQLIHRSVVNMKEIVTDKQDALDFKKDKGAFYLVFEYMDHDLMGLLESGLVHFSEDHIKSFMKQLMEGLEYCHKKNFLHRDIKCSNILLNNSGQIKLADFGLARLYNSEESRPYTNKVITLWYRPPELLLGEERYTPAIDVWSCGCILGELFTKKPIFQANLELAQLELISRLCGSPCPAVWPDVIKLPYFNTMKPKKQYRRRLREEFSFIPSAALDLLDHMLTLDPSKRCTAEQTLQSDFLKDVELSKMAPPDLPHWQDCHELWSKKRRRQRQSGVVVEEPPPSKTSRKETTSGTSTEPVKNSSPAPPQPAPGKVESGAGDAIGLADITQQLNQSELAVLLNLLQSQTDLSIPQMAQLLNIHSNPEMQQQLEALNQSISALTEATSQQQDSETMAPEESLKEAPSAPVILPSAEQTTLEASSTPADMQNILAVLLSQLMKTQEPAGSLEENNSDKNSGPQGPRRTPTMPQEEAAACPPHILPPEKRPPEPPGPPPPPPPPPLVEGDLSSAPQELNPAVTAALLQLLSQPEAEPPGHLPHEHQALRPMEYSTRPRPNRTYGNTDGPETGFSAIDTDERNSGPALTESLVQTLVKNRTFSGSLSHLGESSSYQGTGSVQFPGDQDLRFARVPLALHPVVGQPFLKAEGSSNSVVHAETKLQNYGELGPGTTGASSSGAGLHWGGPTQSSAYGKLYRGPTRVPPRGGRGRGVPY
T1 sequence (Q16531 whole entry): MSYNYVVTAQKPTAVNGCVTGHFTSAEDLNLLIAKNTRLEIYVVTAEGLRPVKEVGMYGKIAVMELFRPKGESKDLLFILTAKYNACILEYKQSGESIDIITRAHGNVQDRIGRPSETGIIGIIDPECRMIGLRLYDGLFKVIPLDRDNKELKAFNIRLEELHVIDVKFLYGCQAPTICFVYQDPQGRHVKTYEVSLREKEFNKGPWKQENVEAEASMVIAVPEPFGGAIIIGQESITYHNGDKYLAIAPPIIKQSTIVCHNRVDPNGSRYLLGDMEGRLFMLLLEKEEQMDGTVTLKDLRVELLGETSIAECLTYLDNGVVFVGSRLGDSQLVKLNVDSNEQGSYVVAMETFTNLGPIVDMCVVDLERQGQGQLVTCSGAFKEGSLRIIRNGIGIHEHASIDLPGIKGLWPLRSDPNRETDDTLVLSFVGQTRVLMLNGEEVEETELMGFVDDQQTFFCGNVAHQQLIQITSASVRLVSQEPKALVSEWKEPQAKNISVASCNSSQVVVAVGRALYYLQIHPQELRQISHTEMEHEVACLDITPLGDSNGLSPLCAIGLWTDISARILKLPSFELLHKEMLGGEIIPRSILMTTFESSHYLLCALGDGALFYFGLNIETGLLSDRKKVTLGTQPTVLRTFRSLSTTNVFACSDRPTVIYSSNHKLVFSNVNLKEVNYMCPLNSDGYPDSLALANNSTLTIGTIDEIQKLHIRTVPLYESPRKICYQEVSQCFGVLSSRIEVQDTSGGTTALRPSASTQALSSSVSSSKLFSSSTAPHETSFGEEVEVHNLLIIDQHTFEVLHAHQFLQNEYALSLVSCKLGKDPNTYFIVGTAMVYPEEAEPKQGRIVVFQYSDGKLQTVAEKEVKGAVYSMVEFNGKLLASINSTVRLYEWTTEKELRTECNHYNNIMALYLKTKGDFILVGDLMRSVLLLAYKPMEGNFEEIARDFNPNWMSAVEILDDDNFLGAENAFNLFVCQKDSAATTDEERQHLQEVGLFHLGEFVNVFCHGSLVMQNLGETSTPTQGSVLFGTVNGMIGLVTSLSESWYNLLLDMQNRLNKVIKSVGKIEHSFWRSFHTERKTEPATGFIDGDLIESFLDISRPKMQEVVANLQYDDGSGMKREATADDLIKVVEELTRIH
T1 sequence (O75909 whole entry partner): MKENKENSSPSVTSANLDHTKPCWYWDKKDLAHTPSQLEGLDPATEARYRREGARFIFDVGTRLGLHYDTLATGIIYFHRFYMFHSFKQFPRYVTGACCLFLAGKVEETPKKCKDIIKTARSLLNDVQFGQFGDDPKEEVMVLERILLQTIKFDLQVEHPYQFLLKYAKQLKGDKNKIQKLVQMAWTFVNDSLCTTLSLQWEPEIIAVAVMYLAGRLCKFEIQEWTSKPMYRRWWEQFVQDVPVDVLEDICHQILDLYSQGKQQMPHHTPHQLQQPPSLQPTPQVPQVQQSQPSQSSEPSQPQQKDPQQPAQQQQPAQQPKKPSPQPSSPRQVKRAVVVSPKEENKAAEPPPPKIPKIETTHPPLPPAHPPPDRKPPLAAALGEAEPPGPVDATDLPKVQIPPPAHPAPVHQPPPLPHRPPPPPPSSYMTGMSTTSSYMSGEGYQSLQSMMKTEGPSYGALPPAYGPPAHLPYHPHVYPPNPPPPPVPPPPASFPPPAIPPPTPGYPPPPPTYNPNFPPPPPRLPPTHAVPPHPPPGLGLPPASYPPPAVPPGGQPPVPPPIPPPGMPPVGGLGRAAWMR

Structure (SMILES)	NanoBRET fold-change Activity Class [2]	NanoLuc-CCNK degradation DC50 Activity Class (CCNK)	DC50 (CCNK) [nM]	EC50 (KBM7 cells (wild-type)) [nM]	Ratio UBE2M WT to KO (KBM7 cells (wild-type))	EC50 [1] [nM]
O=C(Nc1ncc(C(F)(F)F)s1)C1CC(=O)N(c2cc(F)cc(F)c2)C1 (centres unmarked) [Example 3-21, 1-(3,5-difluorophenyl)-5-oxo-N-(5-(trifluoromethyl)thiazol-2-yl)pyrrolidine-3-carboxamide]	B (3-4 fold increase)	B (0.50 μM≤DC50<0.10 μM)		≤ 250	44.5	1000 to 10000
Cc1ccc2ncn(CC(=O)Nc3ncc(C(F)(F)F)s3)c2c1 [Example 3-15, 2-(6-methyl-1H-benzo[d]imidazol-1-yl)-N-(5-(trifluoromethyl)thiazol-2-yl)acetamide]	D (1-2 fold increase)		> 10000	1000 to 10000	>4	> 10000
O=C(Nc1ncc(C(F)(F)F)s1)C1CC(=O)N(c2ccc3c(c2)CCC3)C1 (centres unmarked) [Example 3-24, 1-(2,3-dihydro-1H-inden-5-yl)-5-oxo-N-(5-(trifluoromethyl)thiazol-2-yl)pyrrolidine-3-carboxamide]	B (3-4 fold increase)	B (0.50 μM≤DC50<0.10 μM)		≤ 250	23.8	1000 to 10000
Cc1ccc(N2CC(C(=O)Nc3ncc(C(F)(F)F)s3)CC2=O)cc1 (centres unmarked) [Example 3-16, 5-oxo-1-(p-tolyl)-N-(5-(trifluoromethyl)thiazol-2-yl)pyrrolidine-3-carboxamide]	C (2-3 fold increase)	C (1.0 μM≤DC50<0.50 μM)		250 to 500	>10	> 10000
Cc1c(CC(=O)Nc2ncc(C(F)(F)F)s2)sc2ccccc12 [Example 3-12, 2-(3-methylbenzo[b]thiophen-2-yl)-N-(5-(trifluoromethyl)thiazol-2-yl)acetamide]	D (1-2 fold increase)		> 10000	> 10000	>10	> 10000
Cc1cccn2c(CC(=O)Nc3ncc(C(F)(F)F)s3)cnc12 [Example 3-6, 2-(8-methylimidazo[1,2-a]pyridin-3-yl)-N-(5-(trifluoromethyl)thiazol-2-yl)acetamide]	C (2-3 fold increase)	D (10 μM≤DC50<1.0 μM)		≤ 250	129.4	1000 to 10000
O=C(Cc1cc2ccccc2s1)Nc1ncc(C(F)(F)F)s1 [Example 3-10, 2-(benzo[b]thiophen-2-yl)-N-(5-(trifluoromethyl)thiazol-2-yl)acetamide]	C (2-3 fold increase)		≤ 100	≤ 250	23.6	1000 to 10000
O=C(Nc1ncc(C(F)(F)F)s1)C1CC(=O)N(c2ccccc2Cl)C1 (centres unmarked) [Example 3-20, 1-(2-chlorophenyl)-5-oxo-N-(5-(trifluoromethyl)thiazol-2-yl)pyrrolidine-3-carboxamide]	C (2-3 fold increase)		> 10000	250 to 500	>10	> 10000

Continued, in another order:

NanoBRET fold-change Activity Class [2]	NanoLuc-CCNK degradation DC50 Activity Class (CCNK)	DC50 (CCNK) [nM]	Structure (SMILES)	EC50 (KBM7 cells (wild-type)) [nM]	Ratio UBE2M WT to KO (KBM7 cells (wild-type))	EC50 [1] [nM]
A (greater than 4-fold increase)	B (0.50 μM≤DC50<0.10 μM)		CC(C)c1ccc(NC(=O)Cc2cn3cc(F)ccc3n2)nc1 [Example 3-61, 2-(6-fluoroimidazo[1,2-a]pyridin-2-yl)-N-(5-isopropylpyridin-2-yl)acetamide]	≤ 250	>20	> 10000
C (2-3 fold increase)		> 10000	O=C(Cc1cn2cc(F)ccc2n1)Nc1cc(Br)[nH]n1 [Example 3-58, N-(5-bromo-1H-pyrazol-3-yl)-2-(6-fluoroimidazo[1,2-a]pyridin-2-yl)acetamide]	≤ 250	>10	> 10000
B (3-4 fold increase)	B (0.50 μM≤DC50<0.10 μM)		O=C(CCn1cnc2ccc(Br)cc2c1=O)Nc1ncc(C(F)(F)F)s1 [Example 3-65, 3-(6-bromo-4-oxoquinazolin-3(4H)-yl)-N-(5-(trifluoromethyl)thiazol-2-yl)propanamide]	500 to 1000	>13	> 10000
B (3-4 fold increase)	C (1.0 μM≤DC50<0.50 μM)		Cc1ccc2c(CC(=O)Nc3ccc(Cl)cn3)coc2c1C [Example 3-55, N-(5-chloropyridin-2-yl)-2-(6,7-dimethylbenzofuran-3-yl)acetamide]	250 to 500	9.2	1000 to 10000
B (3-4 fold increase)	D (10 μM≤DC50<1.0 μM)		O=C(Cc1c[nH]c2nccc(Cl)c12)Nc1ncc(C(F)(F)F)s1 [Example 3-39, 2-(4-chloro-1H-pyrrolo[2,3-b]pyridin-3-yl)-N-(5-(trifluoromethyl)thiazol-2-yl)acetamide]	1000 to 10000	>4	> 10000
B (3-4 fold increase)		> 10000	O=C(Nc1ncc(C(F)(F)F)s1)C1CC(=O)N(c2ccc3c(c2)OCO3)C1 (centres unmarked) [Example 3-25, 1-(benzo[d][1,3]dioxol-5-yl)-5-oxo-N-(5-(trifluoromethyl)thiazol-2-yl)pyrrolidine-3-carboxamide]	250 to 500	>10	> 10000
B (3-4 fold increase)	C (1.0 μM≤DC50<0.50 μM)		O=C(Nc1ncc(C(F)(F)F)s1)C1CC(=O)N(Cc2ccc(Cl)cc2)C1 (centres unmarked) [Example 3-28, 1-(4-chlorobenzyl)-5-oxo-N-(5-(trifluoromethyl)thiazol-2-yl)pyrrolidine-3-carboxamide]	≤ 250	42.7	1000 to 10000
C (2-3 fold increase)	D (10 μM≤DC50<1.0 μM)		O=C(Cc1cc2ccccc2o1)Nc1ncc(C(F)(F)F)s1 [Example 3-41, 2-(benzofuran-2-yl)-N-(5-(trifluoromethyl)thiazol-2-yl)acetamide]	1000 to 10000	>2	> 10000
